Test results reported in DBAASP.
Converted amounts (≈) assume the structure as drawn. Each block holds one compound with its values, some of them ahead of it.

Tests used:
Test in all cases: ≥ marks a high value that may be exact or a test limit, other limits are often not marked, values filed in µg/mL are converted to µM
[1] = test system: Staphylococcus aureus ATCC 27660
[2] = test system: Salmonella enterica subsp. enterica serovar Typhimurium ATCC 700931
[3] = test system: Pseudomonas aeruginosa ATCC 10145
Escherichia coli D31 = test system: Escherichia coli D31
[4] = test system: Staphylococcus epidermidis ATCC 14990
Bacillus subtilis DELTA = test system: Bacillus subtilis DELTA
Candida parapsilosis = test system: Candida parapsilosis
[5] = test system: Pseudomonas aeruginosa PAO1
[6] = test system: Zymomonas mobilis ATCC 10988
[7] = test system: Escherichia coli DH5alpha
[8] = test system: Streptococcus sobrinus ATCC 6715
[9] = test system: Streptococcus sanguinis ATCC 10556
[10] = test system: Streptococcus mutans UA159
[11] = test system: Bacillus magaterium AB90008
[12] = test system: Salmonella enterica AB2010185
[13] = test system: Micrococcus luteus AB2010179
Pseudomonas fluorescens = test system: Pseudomonas fluorescens
[14] = test system: Enterobacter cloacae AB2010162
Pseudomonas putida = test system: Pseudomonas putida
[15] = test system: Staphylococcus aureus AB94004
[16] = test system: Staphylococcus aureus ATCC 29213
[17] = test system: Escherichia coli ATCC 25922
[18] = test system: Salmonella enterica subsp. enterica serovar Typhimurium ATCC 14028
[19] = test system: Bacillus cereus ATCC 11778
[20] = test system: Klebsiella aerogenes ATCC 13048
[21] = test system: Staphylococcus aureus NBRC 13276
[22] = test system: Escherichia coli NBRC 3972
[23] = test system: Pseudomonas aeruginosa NBRC 13275
[24] = test system: Staphylococcus aureus 209P
Escherichia coli C600 = test system: Escherichia coli C600

Structure (SMILES): CC(C)[C@H](NC(=O)[C@H](C)N)C(=O)N[C@@H](Cc1c[nH]c2ccccc12)C(=O)N[C@@H](CCCCN)C(=O)N[C@@H](CCCCN)C(=O)N[C@H](C(=O)N[C@H](C(=O)N[C@@H](CCCCN)C(=O)N[C@@H](CCCCN)C(=O)N[C@H](C(=O)N[C@H](C(=O)N[C@@H](CCCCN)C(=O)N[C@@H](CO)C(=O)N[C@@H](C)C(=O)N[C@@H](CCCCN)C(=O)N[C@@H](CCCCN)C(=O)N[C@H](C(=O)NCC(=O)O)C(C)C)C(C)C)C(C)C)C(C)C)C(C)C [AVWKKVVKKVVKSAKKVG]
MIC [1]: 7.5 µM (≈ 14.9 µg/mL)
MIC [2]: 7.5 µM (≈ 14.9 µg/mL)
MIC [3]: 7.5 µM (≈ 14.9 µg/mL)
MIC (Escherichia coli D31): 3.75 µM (≈ 7.43 µg/mL)
MIC [4]: 7.5 µM (≈ 14.9 µg/mL)

Structure (SMILES): CC[C@H](C)[C@H](NC(=O)[C@H](CCCN=C(N)N)NC(=O)[C@H](CCCCN)NC(=O)[C@H](Cc1ccccc1)NC(C)=O)C(=O)N[C@H](C(=O)N[C@@H](CCC(N)=O)C(=O)N[C@@H](CC(C)C)C(=O)N[C@@H](CC(C)C)C(=O)N[C@@H](CCCCN)C(=O)N[C@@H](CCCCN)C(=O)N[C@@H](CC(C)C)C(=O)N[C@@H](CC(C)C)C(=O)N[C@@H](CCCN=C(N)N)C(N)=O)C(C)C [FKRIVQLLKKLLR]
MIC (Bacillus subtilis DELTA): 6.04 µM (≈ 10.2 µg/mL)
MIC (Candida parapsilosis): 24.2 µM (≈ 41 µg/mL)
MIC [5]: 1.81 µM (≈ 3.07 µg/mL)
MIC [6]: 3.02 µM (≈ 5.12 µg/mL)
MIC [7]: ≥ 60.4 µM

Structure (SMILES): CC(C)[C@H](NC(=O)[C@H](CCCCN)NC(=O)[C@H](C)NC(=O)[C@H](C)NC(=O)[C@H](CCCCN)NC(=O)[C@H](CCCCN)NC(=O)[C@H](Cc1ccccc1)NC(=O)[C@H](Cc1ccccc1)NC(=O)[C@H](CCCCN)NC(=O)CNC(=O)[C@H](Cc1c[nH]c2ccccc12)NC(=O)CN)C(=O)NCC(=O)N[C@@H](CCCCN)C(=O)N[C@@H](CCCCN)C(=O)N[C@H](C(=O)NCC(=O)O)C(C)C [GWGKFFKKAAKVGKKVG]
MIC [8]: ≥ 279 µM
MIC [9]: ≥ 279 µM
MIC [10]: ≥ 279 µM

Structure (SMILES): CC(=O)N[C@@H](CCCCN)C(=O)N[C@@H](CCCCN)C(=O)NCC(=O)N[C@@H](CCCCN)C(=O)N[C@@H](CCCCN)C(=O)NCC(=O)N[C@@H](CCCCN)C(=O)N[C@@H](CCCCN)C(=O)NCC(N)=O [KKGKKGKKG]
MIC [21]: ≥ 800 µM
MIC [22]: ≥ 800 µM
MIC [23]: ≥ 800 µM

Structure (SMILES): CC[C@H](C)[C@H](NC(=O)[C@H](Cc1ccccc1)NC(=O)[C@H](CCCCN)NC(=O)[C@H](CC(C)C)NC(=O)[C@H](CC(C)C)NC(=O)[C@@H](N)CCCCN)C(=O)N[C@@H](CCCCN)C(=O)N[C@@H](CCCCN)C(=O)N[C@@H](CC(C)C)C(=O)N[C@@H](CC(C)C)C(N)=O [KLLKFIKKLL]
MIC (Bacillus subtilis DELTA): ≥ 32.2 µM
MIC (Candida parapsilosis): 24.1 µM (≈ 30 µg/mL)
MIC [6]: 8.04 µM (≈ 9.99 µg/mL)
MIC [7]: ≥ 322 µM

Structure (SMILES): CC(C)[C@@H]1NC(=O)CNC(=O)[C@H](CCCN=C(N)N)NC(=O)[C@H](CCCN=C(N)N)NC(=O)[C@H](CCCN=C(N)N)NC(=O)[C@H](C)NC(=O)[C@H](Cc2ccc(O)cc2)NC(=O)[C@H](C(C)C)NC(=O)[C@@H](NC(=O)[C@H](Cc2c[nH]c3ccccc23)NC(=O)[C@@H](N)CCCN=C(N)N)CSSC[C@@H](C(=O)N[C@@H](Cc2c[nH]c3ccccc23)C(=O)O)NC(=O)[C@H](CCCN=C(N)N)NC(=O)[C@H](CCCN=C(N)N)NC(=O)[C@H](Cc2ccc(O)cc2)NC(=O)[C@H](CCCN=C(N)N)NC1=O [RWCVYARRRGVRYRRCW]
MIC [24]: 3.13 µM (≈ 7.33 µg/mL)
MIC (Escherichia coli C600): 3.13 µM (≈ 7.33 µg/mL)
MIC [5]: 50 µM (≈ 117 µg/mL)

Now from value to compound:

MIC [1]: 1.88 µM (≈ 3.89 µg/mL)
MIC [2]: 1.88 µM (≈ 3.89 µg/mL)
MIC [3]: 1.88 µM (≈ 3.89 µg/mL)
MIC (Escherichia coli D31): 0.94 µM (≈ 1.94 µg/mL)
MIC [4]: 0.94 µM (≈ 1.94 µg/mL)
Structure (SMILES): CC(C)C[C@H](NC(=O)[C@H](C)N)C(=O)N[C@@H](Cc1c[nH]c2ccccc12)C(=O)N[C@@H](CCCCN)C(=O)N[C@@H](CCCCN)C(=O)N[C@@H](CC(C)C)C(=O)N[C@@H](CC(C)C)C(=O)N[C@@H](CCCCN)C(=O)N[C@@H](CCCCN)C(=O)N[C@@H](CC(C)C)C(=O)N[C@@H](CC(C)C)C(=O)N[C@@H](CCCCN)C(=O)N[C@@H](CO)C(=O)N[C@@H](C)C(=O)N[C@@H](CCCCN)C(=O)N[C@@H](CCCCN)C(=O)N[C@@H](CC(C)C)C(=O)NCC(=O)O [ALWKKLLKKLLKSAKKLG]

MIC [8]: 9.13 µM (≈ 16 µg/mL)
MIC [9]: 9.13 µM (≈ 16 µg/mL)
MIC [10]: 9.13 µM (≈ 16 µg/mL)
Structure (SMILES): NCCCC[C@H](NC(=O)CNC(=O)[C@H](Cc1ccccc1)NC(=O)[C@H](CCCCN)NC(=O)[C@H](Cc1ccccc1)NC(=O)[C@H](Cc1ccccc1)NC(=O)[C@H](CCCCN)NC(=O)[C@H](CCCCN)NC(=O)[C@H](Cc1ccccc1)NC(=O)[C@H](Cc1ccccc1)NC(=O)[C@H](CCCCN)NC(=O)CNC(=O)[C@H](Cc1c[nH]c2ccccc12)NC(=O)CN)C(=O)O [GWGKFFKKFFKFGK]

MIC [11]: ≥ 50 µM
MIC [12]: ≥ 35 µM
MIC [13]: 2 µM (≈ 2.99 µg/mL)
MIC (Pseudomonas fluorescens): ≥ 32 µM
MIC [14]: ≥ 82 µM
MIC (Pseudomonas putida): 16 µM (≈ 23.9 µg/mL)
MIC [15]: 12 µM (≈ 17.9 µg/mL)
MIC [7]: ≥ 82 µM
Structure (SMILES): CC[C@H](C)[C@H](N)C(=O)N[C@@H](CC(C)C)C(=O)NCC(=O)N[C@@H](CCCCN)C(=O)N[C@H](C(=O)N[C@@H](Cc1c[nH]c2ccccc12)C(=O)N[C@@H](CCCCN)C(=O)NCC(=O)N[C@H](C(=O)N[C@@H](CCCCN)C(=O)N[C@@H](CC(N)=O)C(=O)N[C@H](C(=O)N[C@@H](CC(C)C)C(N)=O)[C@@H](C)CC)[C@@H](C)CC)[C@@H](C)CC [ILGKIWKGIKNIL]

MIC [16]: > 67.8 µM
MIC [17]: > 67.8 µM
MIC [18]: > 67.8 µM
MIC [19]: ≥ 67.8 µM
MIC [20]: ≥ 67.8 µM
Structure (SMILES): CC[C@H](C)[C@H](N)C(=O)N[C@@H](CC(C)C)C(=O)NCC(=O)N[C@@H](CCCCN)C(=O)N[C@H](C(=O)N[C@@H](Cc1c[nH]c2ccccc12)C(=O)N[C@@H](CCC(=O)O)C(=O)NCC(=O)N[C@H](C(=O)N[C@@H](CCCCN)C(=O)N[C@@H](CO)C(=O)N[C@@H](CC(C)C)C(=O)N[C@@H](Cc1ccccc1)C(N)=O)C(C)C)C(C)C [ILGKVWEGVKSLF]
